# Measurements published in PubChem BioAssay AID248 (DTP/NCI, 2004).
# Values joined by “and” are separate entries in the source; they are usually repeats but may differ in a detail not shown here. Identical values can stand only once. Inconclusive results and toxic doses are left out.
# Test system: L1210 leukemia ip in BDF1 mice, survival T/C
# Test: NCI In Vivo Anticancer Drug Screen. Data for tumor model L1210 Leukemia (intraperitoneal) in B6D2F1 (BDF1) mice
# Conditions: endpoint: mean survival time, higher = longer survival
# How it was run: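 Ratio derived from survival: compound-dosed mice over vehicle-dosed mice, all bearing a transplantable tumor.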
# [1] = dose: 100.0 mg/kg/injection, schedule: Q01DX001 (ip), vehicle: saline
# [2] = dose: 100.0 mg/kg/injection, schedule: Q04DX003 (ip), vehicle: Klucel (hydroxypropylcellulose) (HPC)
# [3] = dose: 200.0 mg/kg/injection, schedule: Q04DX003 (ip), vehicle: Klucel (hydroxypropylcellulose) (HPC)
# [4] = dose: 200.0 mg/kg/injection, schedule: Q01DX001 (ip), vehicle: saline
# [5] = dose: 400.0 mg/kg/injection, schedule: Q01DX001 (ip), vehicle: saline
# [6] = dose: 100.0 mg/kg/injection, schedule: Q01DX009 (ip), vehicle: Klucel (hydroxypropylcellulose) (HPC)
smiles,measurement,setting,value
Oc1ccccc1/C=N/c1nc2ccc(Cl)cc2s1.Oc1ccccc1/C=N/c1nc2ccc(Cl)cc2s1.[Zn],T/C,[1],90 % of control
O=C(CCCN1CCC2(CC1)OC(=O)N(c1ccccc1)C2=O)c1ccc(F)cc1,T/C,[2],89 % of control
same,T/C,[3],106 % of control
O=C(O)/C=C/c1ccc(C(NC(=O)N2C(=O)C=CC2=O)NC(=O)N2C(=O)C=CC2=O)cc1,T/C,"dose: 100.0 mg/kg/injection, schedule: Q01DX001 (ip), vehicle: carboxymethylcellulose (CMC)",100 % of control
same,T/C,"dose: 200.0 mg/kg/injection, schedule: Q01DX001 (ip), vehicle: carboxymethylcellulose (CMC)",95 % of control
same,T/C,"dose: 400.0 mg/kg/injection, schedule: Q01DX001 (ip), vehicle: carboxymethylcellulose (CMC)",97 % of control
CC(C)=CCOc1ccc(C(=O)O)cc1,T/C,[1],100 % of control
same,T/C,[4],116 % of control
same,T/C,[5],107 % of control
CCOC(=O)C1CN(C(C)C)C(=O)C1=O (stereo not given),T/C,"dose: 50.0 mg/kg/injection, schedule: Q01DX001 (ip), vehicle: saline",100 % of control
same,T/C,[1],102 % of control
same,T/C,[4],96 % of control
same,T/C,[5],114 % of control
N/N=C/C=N/Nc1cnccn1,T/C,[6],106 % of control
same,T/C,"dose: 200.0 mg/kg/injection, schedule: Q01DX009 (ip), vehicle: Klucel (hydroxypropylcellulose) (HPC)",86 % of control
CN(C)C1C(CO)C(CO)C1(C)C (stereo not given),T/C,"dose: 100.0 mg/kg/injection, schedule: Q01DX001 (ip), vehicle: saline with Tween-80",102 % of control
same,T/C,"dose: 200.0 mg/kg/injection, schedule: Q01DX001 (ip), vehicle: saline with Tween-80",97 % of control
Clc1ccc(Cl)c(NNc2cc(Cl)ccc2Cl)c1,T/C,"dose: 25.0 mg/kg/injection, schedule: Q01DX009 (ip), vehicle: Klucel (hydroxypropylcellulose) (HPC)",114 % of control
same,T/C,"dose: 50.0 mg/kg/injection, schedule: Q01DX009 (ip), vehicle: Klucel (hydroxypropylcellulose) (HPC)",98 % of control
same,T/C,[6],96 % of control and 92 % of control
same,T/C,[2],98 % of control
same,T/C,[3],101 % of control
NS(=O)(=O)Cc1ccccc1,T/C,"dose: 25.0 mg/kg/injection, schedule: Q01DX009 (ip), vehicle: saline",92 % of control
same,T/C,"dose: 50.0 mg/kg/injection, schedule: Q01DX009 (ip), vehicle: saline",94 % of control
same,T/C,"dose: 100.0 mg/kg/injection, schedule: Q01DX009 (ip), vehicle: saline",100 % of control
